Experiment [1] in a line: Cytotoxicity against human 518A2 cells after 96 hrs by sulforhodamine B assay. The class given is functional, cell-based. As to conditions: 518A2, 96 h. Background: In SRB staining, fixed cells bind dye roughly in proportion to their protein.
The test system of another experiment is 8505C. As to the kind of experiment: Cytotoxicity against human 8505C cells after 96 hrs by sulforhodamine B assay. It counts as functional, cell-based.
Another experiment concerns A2780. As to the kind of experiment: Cytotoxicity against human A2780 cells after 96 hrs by sulforhodamine B assay. As to conditions: A2780, 96 h. The class given is functional, cell-based.
The test system of the next experiment is A549. The experiment in a line: Cytotoxicity against human A549 cells after 96 hrs by sulforhodamine B assay. It counts as functional, cell-based. Particulars: A549, 96 h.
For a further experiment, the system named is HT-29. The experiment in a line: Cytotoxicity against human HT-29 cells after 96 hrs by sulforhodamine B assay. It counts as functional, cell-based. Particulars: HT-29, 96 h.
For another experiment, the system named is MCF7. As to the kind of experiment: Cytotoxicity against human MCF7 cells after 96 hrs by sulforhodamine B assay. The class given is functional, cell-based. Particulars: MCF7, 96 h.
The nature of experiment [2]: Cytotoxicity against mouse NIH/3T3 cells after 96 hrs by sulforhodamine B assay. The class given is cell-based. As to conditions: NIH3T3, 96 h.

The structures appear in SMILES notation.

What is called EC50 is the concentration giving half of the maximal effect. Higher therefore signals weaker potency. `CCC[C@@H](O)CC/C=C/C=C/C#CC#C/C=C/CO` [OENANTHOTOXIN]: the EC50 is 17.1 µM in experiment [1]; 10.5 µM with 8505C; 3.8 µM in the experiment on A2780; 10.9 µM with A549; greater than 30 µM in the experiment on HT-29; 20.6 µM in the experiment with MCF7. For the same compound, the EC50 in experiment [2] came out at 10.1 µM.

Turning to `CCC[C@@H](O)CC/C=C/C=C/C#CC#C/C=C/COC(C)=O`, the EC50 in experiment [1] is 14.9 µM; in the experiment with 8505C it was 20.3 µM; in the experiment on A2780 it was 6.8 µM; in the experiment with A549, 20.5 µM; in the experiment on HT-29, 26.3 µM; in the experiment on MCF7 it was 21.3 µM. In experiment [2], it took 16.9 µM to reach a half-maximal effect (EC50).

On to `C=C(C)[C@@H]1CC[C@]2(C(=O)O)CC[C@]3(C)[C@H](CC[C@@H]4[C@@]5(C)CC[C@H](O)C(C)(C)[C@@H]5CC[C@]43C)[C@@H]12` [BETULINIC ACID], for which the EC50 was found to be 11.9 µM in experiment [1]; 6.7 µM with 8505C; 11 µM with A2780; 14.8 µM with A549; 13.1 µM in the experiment with HT-29; 14.9 µM with MCF7. In experiment [2], this compound returned an EC50 of 10 µM.

With `CCCC(=O)CC/C=C/C=C/C#CC#C/C=C/COC(=O)CCl`, the EC50 in experiment [1] is 12.6 µM; with 8505C, 19.3 µM; in the experiment on A2780 it was 3.6 µM; in the experiment with A549, 5.1 µM; in the experiment on HT-29 it was greater than 30 µM; in the experiment on MCF7, 26.9 µM. Besides, in experiment [2], the EC50 amounted to 11.9 µM.

Consider `CCCC(=O)CC/C=C/C=C/C#CC#C/C=C/C(=O)O`, for which the EC50 in experiment [1] was greater than 30 µM; in the experiment on 8505C it was 19.3 µM; with A2780, greater than 30 µM; in the experiment with A549, greater than 30 µM; in the experiment on HT-29, greater than 30 µM; in the experiment with MCF7, greater than 30 µM. This compound yielded an EC50 in experiment [2] greater than 30 µM.

As for `CCCC(=O)CC/C=C/C=C/C#CC#C/C=C/CO`, the EC50 was 19.1 µM in experiment [1]; 18 µM with 8505C; 4.9 µM with A2780; 19.7 µM with A549; 21.2 µM with HT-29; 234 µM in the experiment with MCF7. In experiment [2], this compound yielded an EC50 of 11.1 µM.

As for `CCC[C@@H](CC/C=C/C=C/C#CC#C/C=C/COC(C)=O)OC(C)=O`, the concentration for a half-maximal effect (EC50) in experiment [1] is 14.7 µM; in the experiment on 8505C, 16.8 µM; in the experiment on A2780, 3.9 µM; with A549 it was 14.5 µM; with HT-29, 17.9 µM; in the experiment on MCF7, 12.4 µM. In addition, the EC50 in experiment [2] came out at 11.8 µM.

Consider `CCCC(=O)CC/C=C/C=C/C#CC#C/C=C/COC(=O)c1ccccc1`, for which the EC50 was 20.5 µM in experiment [1]; 4.2 µM in the experiment with 8505C; greater than 30 µM with A2780; 14.4 µM in the experiment with A549; 7.9 µM in the experiment on HT-29; greater than 30 µM with MCF7. For the same compound, a half-maximal effect in experiment [2] (EC50) was put at 26.7 µM.

Consider `CCCC(=O)CC/C=C/C=C/C#CC#C/C=C/C=O`, for which the half-maximal effective concentration (EC50) in experiment [1] is greater than 30 µM; with 8505C, 7.1 µM; in the experiment on A2780, 7 µM; with A549 it was greater than 30 µM; with HT-29 it was 22.2 µM; in the experiment on MCF7 it was 5.9 µM. Also, in experiment [2], the EC50 amounted to 13.2 µM.

Take `CCCC(=O)CC/C=C/C=C/C#CC#C/C=C/COC(C)=O`: the EC50 in experiment [1] was 9.1 µM; with 8505C, 15.6 µM; with A2780, 4.7 µM; with A549 it was 56.4 µM; with HT-29 it was greater than 30 µM; in the experiment with MCF7 it was 21.6 µM. Also, in experiment [2], the EC50 is 14.2 µM.

The record behind these values is ChEMBL document CHEMBL3600337, “Chemoenzymatic synthesis and cytotoxicity of oenanthotoxin and analogues” (Bioorg Med Chem, 2015).
